pIC50: −log10 of the molar value.
Assays:
RAW264.7 [1] = experiment: Cytotoxicity against mouse RAW264.7 cells at 20 uM measured after 24 hrs; type: cell-based; conditions: raw264.7, 24 h
L02 = experiment: Antiinflammatory activity against human L02 assessed as inhibition of LPS-induced NO production preincubated for 1 hrs followed by LPS stimulation and measured after 24 hrs by Griess assay relative to control; type: functional, cell-based
RAW264.7 [2] = experiment: Antiinflammatory activity against mouse RAW264.7 cells assessed as inhibition of LPS-induced NO production at 10 uM preincubated for 1 hrs followed by LPS stimulation and measured after 24 hrs by Griess assay relative to control; type: functional; conditions: time 25 hrs

Structure (SMILES)	Activity (RAW264.7 [1])	pIC50 (L02)	inhibition at 10 µM (RAW264.7 [2]) [%]
CCCc1nn(C)c2c(NCCc3ccccc3)nc(/C=C/c3cccnc3)nc12	Non-Toxic	< 3.00	77.4
CNc1nc(/C=C/c2ccccc2)nc2ccsc12	Non-Toxic	< 3.00	21.9
CN1CCN(c2nc(/C=C/c3ccco3)nc3ccsc23)CC1	Non-Toxic	< 3.00	43.9
Fc1ccc(CCNc2nc(/C=C/c3ccccc3)nc3ccsc23)cc1	Non-Toxic	< 3.00	29.8
CCCc1nn(C)c2c(NC3CC3)nc(CCc3cccnc3)nc12	Non-Toxic	3.25	7.29
CCCc1nn(C)c2c(N3CCOCC3)nc(/C=C/c3nc(C)c(C)nc3C)nc12	Non-Toxic	3.43	74.2
CCCc1nn(C)c2c(N3CCOCC3)nc(/C=C/c3cccnc3)nc12	Non-Toxic	3.27	69.9
CC(C)CNc1nc(/C=C/c2ccccc2)nc2ccsc12	Non-Toxic	< 3.00	25
C(=C\c1nc(N2CCOCC2)c2sccc2n1)/c1ccccc1	Non-Toxic	< 3.00	34.1
COc1cc(/C=C/c2nc(Nc3ccc(C)cc3)c3sccc3n2)cc(OC)c1OC	Non-Toxic	> 4.40	19.2
COc1cc(/C=C/c2nc(OCc3ccccc3)c3sccc3n2)cc(OC)c1OC	Non-Toxic	< 3.00	33.8
CCCc1nn(C)c2c(NC(C)C)nc(/C=C/c3nc(C)c(C)nc3C)nc12	Non-Toxic	3.47	54.8
COc1cccc(CNc2nc(/C=C/c3ccccc3)nc3ccsc23)c1	Non-Toxic	< 3.00	30.7
COc1cc(/C=C/c2nc(N3CCN(C)CC3)c3sccc3n2)cc(OC)c1OC	Non-Toxic	< 3.00	39.3
COc1cc(/C=C/c2nc(Cl)cc(NCCc3ccc(F)cc3)n2)cc(OC)c1OC	Non-Toxic	> 4.40	55.9
CC(C)Nc1nc(/C=C/c2ccccc2)nc2ccsc12	Non-Toxic	< 3.00	22.9

Structure (SMILES)	Activity (RAW264.7 [1])	pIC50 (L02)	inhibition at 10 µM (RAW264.7 [2]) [%]
COc1cc(/C=C/c2nc(NCCc3ccc(F)cc3)c3sccc3n2)cc(OC)c1OC	Non-Toxic	> 4.40	26.9
CCCc1nn(C)c2c(NCc3ccc(F)cc3)nc(/C=C/c3ccc[n+]([O-])c3)nc12	Non-Toxic	> 4.40	64.6
CCCc1nn(C)c2c(NC3CC3)nc(/C=C/c3ccc[n+]([O-])c3)nc12	Non-Toxic	3.24	29.2
COc1cc(/C=C/c2nc(Nc3ccc(C(C)C)cc3)c3sccc3n2)cc(OC)c1OC	Non-Toxic	3.43	13.3
CCCc1nn(C)c2c(NCc3ccc(F)cc3)nc(/C=C/c3cccnc3)nc12	Non-Toxic	3.03	61.3
C(=C\c1ccco1)/c1nc(NC2CC2)c2sccc2n1	Non-Toxic	< 3.00	33.3
Fc1ccccc1CCNc1nc(/C=C/c2ccccc2)nc2ccsc12	Non-Toxic	< 3.00	29.8
CCCc1nn(C)c2c(NC3CC3)nc(/C=C/c3cccnc3)nc12	Non-Toxic	3.58	49.5
CN1CCN(c2nc(/C=C/c3ccccc3)nc3ccsc23)CC1	Non-Toxic	3.70	18.5
CCCc1nn(C)c2c(NCc3ccc(F)cc3)nc(CCc3cccnc3)nc12	Non-Toxic	> 4.40	18.8
CCN1CCN(c2nc(/C=C/c3cc(OC)c(OC)c(OC)c3)nc3ccsc23)CC1	Non-Toxic	< 3.00	46.7
CCCc1nn(C)c2c(N3CCS(=O)(=O)CC3)nc(/C=C/c3nc(C)c(C)nc3C)nc12	Non-Toxic	> 4.40	51.6
CCCc1nn(C)c2c(N3CCS(=O)(=O)CC3)nc(/C=C/c3ccc[n+]([O-])c3)nc12	Non-Toxic	< 3.00	3.13
C(=C\c1ccco1)/c1nc(N2CCOCC2)c2sccc2n1	Non-Toxic	< 3.00	28.1
CCCc1nn(C)c2c(N3CCS(=O)(=O)CC3)nc(CCc3cccnc3)nc12	Non-Toxic	< 3.00	15.6

Source: ChEMBL document CHEMBL4813945, “Discovery and development of novel pyrimidine and pyrazolo/thieno-fused pyrimidine derivatives as potent and orally active inducible nitric oxide synthase dimerization inhibitor with efficacy for arthritis” (Eur J Med Chem, 2021)
